Measured values from patent publication US20150209403A1, “Dose Adjustment” (AbbVie Inc., priority 2014, published 2015).

Assays:
[1] = Drug interaction study of 3D regimen with carbamazepine (CBZ); format: in vivo, human
Method: Single doses of the 3D regimen (Compound 1/r/ombitasvir 150/100/25 mg+dasabuvir 250 mg) were administered alone and in the presence of steady state CBZ 200 mg BID in 12 healthy subjects. Drug concentrations were determined from blood samples collected on multiple study days and PK parameters were estimated by noncompartmental analyses. Safety was assessed (adverse events, vital signs, ECG, etc.) throughout the study.

[2] = Drug interaction study of pravastatin and rosuvastatin with 3D or 2D; format: in vivo, human
Method: After a washout, multiple doses of pravastatin (10 mg QD, N=12) and rosuvastatin (5 mg QD, N=12) were administered with and without 3D or 2D to steady state in Period 2. […] Intensive PK sampling was performed in both periods and PK parameters estimated by noncompartmental analyses. Safety was evaluated through assessment of adverse events, vital signs, ECG and clinical laboratory tests.

[3] = DDI studies of 3D regimen with HIV-1 protease inhibitors (ATV, DRV, LPV/r); conditions: for Cmax, AUC and Ctrough, % change: HIV PI co-administered with 3D regimen; for Total bilirubin elevation Grade 3, subjects: 3D regimen DDI study; for tolerability: co-administration with 3D regimen
[4] = DDI studies of 3D regimen with HIV-1 N(t)RTIs, NNRTIs and INSTI; format: in vivo, human; conditions: for exposures (Cmax and AUCτ), % change: both; for exposures (Cmax and AUCτ), % change / exposures (Cmax and AUCτ), effect: human, in vivo
[5] = Drug interaction study of 3D or 2D with ketoconazole (KTZ); format: in vivo, human
Method: Single doses of Compound 1/r/ombitasvir 150/100/25 mg+/−dasabuvir 250 mg were administered alone and in the presence of steady state KTZ 400 mg QD in 24 healthy volunteers. Drug concentrations were determined from intensive blood samples and PK parameters were estimated by noncompartmental analyses. Safety assessment (adverse events, clinical labs, vital signs, ECG) was done throughout the study.

[6] = Drug interaction study of 3D or 2D regimen with omeprazole; conditions: human, in vivo, 40 mg
Method: In 24 healthy volunteers omeprazole (40 mg) were administered on day 1 and days 20-24. The 3D or 2D regimen (Compound 1/r 150/100 mg QD+ombitasvir 25 mg QD±dasabuvir 250 mg BID) was administered on days 6-24. Intensive PK sampling was performed for study drugs when dosed alone and during coadministration and parameters estimated by noncompartmental analyses. Safety was evaluated through assessment of adverse events, vital signs, ECG and clinical laboratory tests.

[7] = RPV 75 mg QD; cited from earlier work
[8] = human, in vivo
Source text: Safety was monitored throughout the study.

[9] = Drug interaction study of 3D or 2D regimen with digoxin; format: in vivo, human; conditions: healthy volunteers
Method: Single doses of digoxin (0.5 mg) were administered alone and in presence of steady state Compound 1/r 150/100 mg QD+ombitasvir 25 mg QD+/−dasabuvir […] BID in 24 healthy volunteers. Drug concentrations were
determined from intensive blood samples collected on multiple study days and PK parameters were estimated by noncompartmental analyses. Safety was assessed (adverse events, vital signs, ECG, etc.) throughout the study.

[10] = LPV/r 800/200 mg QPM with 3D regimen
[11] = single dose 3D or 2D with steady state KTZ 400 mg QD

NC(=O)N1c2ccccc2C=Cc2ccccc21 [CBZ, Carbamazepine]
Increases in ALT and AST, peak ([1]; 3D coadministered with CBZ): Grade 3 in 1 subject
exposures, % increase ([1]; CBZ with 3D): ≤ 17%
tolerability ([1]; coadministration of 3D with CBZ): generally tolerated

CC[C@H](C)C(=O)O[C@H]1C[C@H](O)C=C2C=C[C@H](C)[C@H](CC[C@@H](O)C[C@@H](O)CC(=O)O)[C@H]21 [Pravastatin]
AUC, % higher ([2]; statin with 3D or 2D): ~80%
Cmax, % higher ([2]; statin with 3D or 2D): about 40%

Cc1cccc(C)c1OCC(=O)N[C@@H](Cc1ccccc1)[C@@H](O)C[C@H](Cc1ccccc1)NC(=O)[C@H](C(C)C)N1CCCNC1=O [LPV, Lopinavir]
Cmax, AUC and Ctrough, % change [3]: ≤ 15%
Ctrough versus values observed with LPV/r 400/100 mg BID administered alone [3, 10]: comparable
Ctrough, % higher [3, 10]: 218%

Cc1nnc(C(=O)NC(C)(C)c2nc(C(=O)NCc3ccc(F)cc3)c(O)c(=O)n2C)o1 [RAL, Raltegravir]
treatment discontinuations / premature discontinuation due to AE ([4]; co-administration of 3D regimen with HIV-1 ARV): no treatment discontinuations
tolerability ([4]; co-administration with 3D regimen): generally well tolerated

COC(=O)N[C@H](C(=O)N[C@@H](Cc1ccccc1)[C@@H](O)CN(Cc1ccc(-c2ccccn2)cc1)NC(=O)[C@@H](NC(=O)OC)C(C)(C)C)C(C)(C)C [ATV, Atazanavir]
Total bilirubin elevation Grade 3, subjects ([3]; ATV QD arm): 10/24
Total bilirubin elevation Grade 3, subjects ([3]; ATV QPM arm): 16/24
Ctrough, % higher ([3]; ATV+RTV QPM with 3D regimen): 68%
Cmax, AUC and Ctrough, % change [3]: ≥ 20%
tolerability [3]: generally well tolerated

CC(C)c1nc(N(C)S(C)(=O)=O)nc(-c2ccc(F)cc2)c1/C=C/[C@@H](O)C[C@@H](O)CC(=O)O [Rosuvastatin]
AUC, % higher ([2]; statin with 2D): 32%
Cmax, % higher ([2]; statin with 2D): 161%
AUC, % higher ([2]; statin with 3D): 159%
Cmax, % higher ([2]; statin with 3D): 613%

CC(C)CN(C[C@@H](O)[C@H](Cc1ccccc1)NC(=O)O[C@H]1CO[C@H]2OCC[C@H]21)S(=O)(=O)c1ccc(N)cc1 [DRV, Darunavir]
tolerability [3]: generally well tolerated

COc1c(-c2ccc3cc(NS(C)(=O)=O)ccc3c2)cc(-n2ccc(=O)[nH]c2=O)cc1C(C)(C)C [Compound 2, N-(6-(3-tert-butyl-5-(2,4-dioxo-3,4-dihydropyrimidin-1(2H)-yl)-2-methoxyphenyl)naphthalen-2-yl)methanesulfonamide]
Exposures increased by [5, 11]: up to 42%
exposures (Cmax and AUCτ), % change [4]: up to ±18%
exposures (Cmax and AUCτ), effect [4]: not affected
Cmax, AUC or Ctrough, % change [6]: < 20%

Cc1cc(/C=C/C#N)cc(C)c1Nc1ccnc(Nc2ccc(C#N)cc2)n1 [RPV, Rilpivirine]
Cmax, fold higher than Cmax with RPV 25 mg QD [7]: approximately 2.6 fold
QTcF increase [7]: 10.7 ms

Cc1cnc(C(=O)N[C@H]2CCCCC/C=C\[C@@H]3C[C@@]3(C(=O)NS(=O)(=O)C3CC3)NC(=O)[C@@H]3C[C@@H](Oc4nc5ccccc5c5ccccc45)CN3C2=O)cn1 [Compound 1, (2R,6S,13aS,14aR,16aS,Z)—N-(cyclopropylsulfonyl)-6-(5-methylpyrazine-2-carboxamido)-5,16-dioxo-2-(phenanthridin-6-yloxy)-1,2,3,5,6,7,8,9,10,11,13a,14,14a,15,16,16a-hexadecahydrocyclopropa[e]pyrrolo[1,2-a][1,4]diazacyclopentadecine-14a-carboxamide]
AUCinf increased by [5, 11]: 98-116%
Cmax increased by ([5]; single dose 3D or 2D with steady state KTZ 400 mg QD, healthy volunteers): 37-72%
exposures (Cmax and AUCτ), % change [4]: up to ±32%
exposures (Cmax and AUCτ), effect [4]: not affected
Cmax, AUC or Ctrough, % change [6]: < 20%
exposures (Cmax and AUCτ), % higher ([3]; 3D regimen with LPV/r QPM or BID): ≤ 117%

C=CC[C@@H]1/C=C(\C)C[C@H](C)C[C@H](OC)[C@H]2O[C@@](O)(C(=O)C(=O)N3CCCC[C@H]3C(=O)O[C@H](/C(C)=C/[C@@H]3CC[C@@H](O)[C@H](OC)C3)[C@H](C)[C@@H](O)CC1=O)[C@H](C)C[C@@H]2OC [tacrolimus]
tacrolimus DN_AUCinf, fold of tacrolimus exposure when administered alone [8]: 57-86 fold
tacrolimus DN_Cmax, fold of tacrolimus exposure when administered alone [8]: 3.7-4.3 fold
tacrolimus DN_C24, fold of tacrolimus exposure when administered alone ([8]; 24 h): 17-25 fold

COC(=O)N[C@H](C(=O)N1CCC[C@H]1C(=O)Nc1ccc([C@@H]2CC[C@@H](c3ccc(NC(=O)[C@@H]4CCCN4C(=O)[C@@H](NC(=O)OC)C(C)C)cc3)N2c2ccc(C(C)(C)C)cc2)cc1)C(C)C [Compound 3]
Exposures increased by [5, 11]: up to 26%
exposures (Cmax and AUCτ), % change [4]: up to ±11%
exposures (Cmax and AUCτ), effect [4]: not affected

C[C@H]1O[C@@H](O[C@H]2[C@@H](O)C[C@H](O[C@H]3[C@@H](O)C[C@H](O[C@H]4CC[C@@]5(C)[C@H](CC[C@@H]6[C@@H]5C[C@@H](O)[C@]5(C)[C@@H](C7=CC(=O)OC7)CC[C@]65O)C4)O[C@@H]3C)O[C@@H]2C)C[C@H](O)[C@@H]1O [digoxin]
exposures (Cmax and AUCinf) increased by ([9]; digoxin 0.5 mg single dose with 2D): 24-58%
exposures (Cmax and AUCinf) increased by ([9]; digoxin 0.5 mg single dose with 2D, listed as Digoxin): ≤ 58%
exposures (Cmax and AUCinf) increased by ([9]; digoxin 0.5 mg single dose with 3D): 15-16%
exposures (Cmax and AUCinf) increased by ([9]; digoxin 0.5 mg single dose with 3D, listed as Digoxin): ≤ 16%

CC(=O)N1CCN(c2ccc(OCC3COC(Cn4ccnc4)(c4ccc(Cl)cc4Cl)O3)cc2)CC1 (centres unmarked) [KTZ, Ketoconazole]
AUC24 increased by ([5]; in vivo): 105-117%
Cmax, % change ([5]; in vivo): < 20%

CC(C)c1nc(CN(C)C(=O)N[C@H](C(=O)N[C@@H](Cc2ccccc2)C[C@H](O)[C@H](Cc2ccccc2)NC(=O)OCc2cncs2)C(C)C)cs1 [ritonavir]
Exposures increased by [5, 11]: 27-57%
exposures (Cmax and AUCτ), % change [4]: ±17%
exposures (Cmax and AUCτ), effect [4]: not affected
